From patent publication US20230212296A1, “SYSTEMS AND METHODS FOR TREATING CANCER” (Arizona Board of Regents on Behalf of the University of …, priority 2020, published 2023)

Tests used:
PIM1 [1] = target: T1, PIM1 (Homo sapiens, UniProt P11309); format: biochemical; parameters: Recombinant full-length GST-PIM1 was incubated with recombinant GST-HIF-1α; GST; details: in the presence of a PIM inhibitor (AZD1208 100 nM per method) (FIG. 4A)
Procedure: In vitro: Recombinant full-length GST-PIM1 was incubated with recombinant GST-HIF-1α, GST (negative control), or dephosphorylated myelin basic protein (MBP) in the presence or absence of AZD1208 (100 nM) and ^32P-labeled ATP in kinase assay buffer (20 mM MOPS [pH 7.0] containing 100 mM NaCl, 10 mmol/L MgCl2, and 2 mmol/L dithiothreitol). Reactions were incubated at 37° C. for 60 min prior to the addition of 5× Laemmli sample buffer. Samples were separated by SDS-PAGE and gels were stained with Coomassie prior to autoradiography or preparation for mass spectrometry.

SW620 tumors = assay: SW620 xenograft in SCID mice; format: in vivo
Procedure: (§1) FIG. 6: Five million parental, B24, or C34 SW620 cells in PBS were injected subcutaneously into the rear flanks of mice. Once the tumors reached a volume of approximately 100 mm^3, the mice were randomized for daily treatment with vehicle or AZD1208 (30 mg/kg/day, p.o.) for up to 2 weeks or until tumor burden reached a maximum volume of 2 cm^3. Tumors were measured every 2-3 days via caliper. Upon sacrifice, tumors were harvested for IHC staining with PIM1, HIF-1α, and CC3, and mRNA was collected for analysis.
(§2) For both, the following formula was used to calculate tumor volume by caliper measurements:
(§3) V=(tumor width)^2×tumor length/2.
(§4) These lines were validated by Sanger sequencing.

HIF-1α = assay: Immunoblotting of HIF-1α and phospho-T455 in Dox-PIM1 PC3 cells; format: cell-based; details: Dox-PIM1 PC3, dox 24 h, AZD1208 3 μM for 6 h (FIG. 3C)
SW620 cells = assay: MTT cell viability, parental SW620 cells; format: cell-based; details: parental SW620, increasing doses, 24 h (FIG. 6B)
Procedure: (§5) Response to drug: Twenty thousand cells were plated onto a 96-well plate and allowed to grow for 24 h prior to addition of the drug, and MTT assays were performed after 24 h incubation with the indicated drugs. For MTT assays, media was removed from the cells by aspiration and 50 μL serum-free DMEM and 50 μL MTT solution were added to each well, and plates were incubated for 4 h at 37° C. After incubation, 150 μL of DMSO was added to each well for 15 minutes and absorbance was read at 540 nm.

PIM1 [2] = target: T1, PIM1; format: biochemical; details: immunoprecipitated HA-HIF-1α, recombinant PIM1 (FIG. 4D)
Procedure: In vivo: HA-HIF-1α or its mutant (T455A) were immunoprecipitated with anti-HA antibodies. Immune complexes were washed three times in lysis buffer, then washed twice in 1× kinase buffer and incubated with 0.1 μg of recombinant active PIM1 and 100 μmol/L of ATP for 30 min at 25° C. Reactions were stopped by washing twice in a cold kinase buffer and boiling in 2×SDS loading buffer. The sample was separated on a SDS-polyacrylamide gel and subjected to Western blot analysis with anti-phospho HIF-1α (T455) antibody.

B24 and C34 tumors = assay: B24 / C34 (HIF-1α T455D) xenografts in SCID mice; format: in vivo
Procedure: as §1, §2, §3, §4

HIF-1 target genes = assay: Hypoxia-inducible gene expression (RT2 profiler array, qRT-PCR) in PC3 Dox-PIM1 cells; format: cell-based; details: eleven genes; Dox 24 h, ± AZD1208 for 8 h, normoxia (FIG. 3F)
Procedure: Hypoxia-responsive gene expression was measured and quantified using RT^2 hypoxia-signaling PCR profiler arrays using the manufacturer's software (Qiagen). All other qRT-PCR reactions were performed using qPCRBIO SyGreen Blue Mix (PCR Biosystems), according to the manufacturer's protocol. Validated primer sets (QuantiTech primer assays; Qiagen) for each of the following genes were purchased to measure gene expression: VEGF-A, angiopoietin like 4 (ANGPTL4), and hexokinase 2 (HK2). HIF1α, PIM1 and Actin primers were purchased from IDT. Actin was used to normalize.

B24 and C34 cell lines = assay: MTT cell viability, HIF-1α T455D mutant SW620 lines B24 and C34; format: cell-based; details: B24 and C34, increasing doses, 24 h (FIG. 6B)
Procedure: as §5

HIF-1 = HIF-1 reporter (HRE-Luc) assay in Dox-PIM1 cells; format: cell-based; details: Dox 24 h, then AZD1208 for 4 h, normoxia (FIG. 3D)

T1 sequence (P11309 whole entry): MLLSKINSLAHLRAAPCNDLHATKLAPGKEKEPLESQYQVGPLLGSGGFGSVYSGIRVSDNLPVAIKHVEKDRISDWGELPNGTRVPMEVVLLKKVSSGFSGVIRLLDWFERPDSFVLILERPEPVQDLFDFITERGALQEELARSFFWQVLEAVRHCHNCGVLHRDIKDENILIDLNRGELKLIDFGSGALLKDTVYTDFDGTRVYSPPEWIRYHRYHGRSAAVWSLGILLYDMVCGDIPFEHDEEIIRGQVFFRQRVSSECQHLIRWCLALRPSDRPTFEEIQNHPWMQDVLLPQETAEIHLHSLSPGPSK

Row | Molecule | phosphorylation of HIF-1α by PIM1 (autoradiography) (PIM1 [1]) | HIF-1α levels in tumors (IHC) (SW620 tumors; SW620 tumors, AZD1208 30 mg/kg (FIG. 6I)) | apoptosis (cleaved caspase-3 staining) (SW620 tumors; SW620 tumors, AZD1208 30 mg/kg (FIG. 6J)) | expression of pro-angiogenic genes VEGF-A and ANGPT4 in tumor tissue (RT-PCR) (SW620 tumors; SW620 tumors, AZD1208 30 mg/kg (FIG. 6K)) | tumor volume (SW620 tumors; SW620 tumors, AZD1208 30 mg/kg/day p.o. (FIG. 6G)) | tumor vasculature (H&E staining) (SW620 tumors; SW620 xenografts, AZD1208 30 mg/kg (FIG. 6H)) | ability of PIM1 to increase HIF-1α protein levels (HIF-1α) | cell viability (MTT) (SW620 cells) | phosphorylation of wild-type HIF-1α at Thr455 by PIM1 (PIM1 [2]) | expression of HIF-1 target genes in tumor tissue (RT-PCR) (B24 and C34 tumors; B24 and C34 tumors, AZD1208 30 mg/kg (FIG. 6K)) | HIF-1α levels in tumors (IHC) (B24 and C34 tumors; B24 or C34 tumors, AZD1208 30 mg/kg (FIG. 6I)) | apoptosis (cleaved caspase-3 staining) (B24 and C34 tumors; B24 or C34 tumors, AZD1208 30 mg/kg (FIG. 6J)) | tumor growth (B24 and C34 tumors; B24 or C34 xenografts, AZD1208 30 mg/kg/day p.o. (FIG. 6G)) | tumor vasculature (H&E staining) (B24 and C34 tumors; C34 and B24 tumors, AZD1208 30 mg/kg (FIG. 6H)) | transcript levels of hypoxia-inducible genes upregulated at least 3-fold by PIM1 (HIF-1 target genes) | cell viability (MTT), sensitivity versus parental SW620 (B24 and C34 cell lines) | PIM1-induced increase of HIF-1 activity (HRE-Luc normalized to Renilla-Luc) (HIF-1) | in vitro kinase assay (32P-ATP autoradiography; mass spectrometry of phosphorylation sites) (recombinant GST-HIF-1α) | kinase assay on immunoprecipitated HA-HIF-1α, western blot with phospho-T455 antibody (HA-HIF-1α (wild-type))
1 | N[C@@H]1CCCN(c2c(/C=C3\SC(=O)NC3=O)cccc2-c2ccccc2)C1 [AZD1208] | phosphorylation was lost | significantly reduced | increased | reduced | significantly reduced | disrupted tumor vasculature | blocked the ability of PIM1 to increase HIF-1α protein levels | significant and dose-dependent reduction in viability | blocked | no effect | refractory to PIM inhibition | no significant apoptosis was observed | unable to slow the growth | regular vasculature was observed | significantly reduced | less sensitive | reversed | – | –
2 | recombinant full-length GST-PIM1 | – | – | – | – | – | – | – | – | – | – | – | – | – | – | – | – | – | Autoradiography revealed that PIM1 is able to phosphorylate HIF-1α, and phosphorylation was lost in the presence of a PIM inhibitor | Wild-type HIF-1α displayed robust phosphorylation at Thr455 by PIM1, which was blocked by AZD1208
